Values of other authors, collected in patent US9060935B2, “Pharmaceutical lipid compositions” (CAMURUS AB, priority 2005, dated 2015).

Assays:
[1] = room temperature
[2] = native GLP-1

Molecule | equilibrium water solubility [1] | plasma half-life [2]
CCCCCCCC/C=C\CCCCCCCC(=O)OCC(O)CO (centres unmarked) [GMO, glycerol monooleate] | ~10^−7 M | 
GLP-1: native glucoregulatory hormone, 37-amino acid peptide with a MW of 4.2 KDa |  | below 2 minutes
